This is an account of results in ChEMBL document CHEMBL1201862, “PubChem BioAssay data set” (2004).

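Following 48 hours of exposure in 96-well plates, responses at five concentrations were used to interpolate endpoints linearly. Here, GI50 denotes the concentration required for 50% inhibition of growth.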 Activity calls are given as the source filed them. Cut-off read from the data, not from the text of the source: active = GI50 up to about 1.1 µM and inactive = higher. Bounds are passed on as bounds.

Some test systems named below: COLO 205; HL-60; EKVX; HCT-116; HT-29; ACHN; A498; OVCAR-4; MDA-MB-435; RXF 393; SK-MEL-28; NCI-H226; CAKI-1; KM12; MDA-N; SF-268; OVCAR-8; Hs-578T; T47D.
Common to all, as to assay: NCI anticancer screen, dose series, 48 h

Consider `CC(C)=CCC/C(C)=C/CCC1(C)C2COC(=O)C21` (configuration not stated), for which the GI50 in the assay with COLO 205 is 48.3 µM (inactive); in the assay with HL-60, 19.8 µM (inactive); with EKVX it was 53.2 µM (inactive); in the assay with HCT-116, 31.9 µM (inactive); in the assay on HT-29, 70.8 µM (inactive); in the assay with ACHN, > 100 µM (inactive). Moreover, the GI50 is > 100 µM (inactive) in the assay with A498; 42.8 µM (inactive) in the assay with OVCAR-4; 65.5 µM (inactive) with MDA-MB-435; > 100 µM (inactive) in the assay on RXF 393; 29 µM (inactive) in the assay on SK-MEL-28; > 100 µM (inactive) in the assay with NCI-H226. Also, the GI50 was > 100 µM (inactive) with CAKI-1, 34.9 µM (inactive) in the assay on KM12, 54.7 µM (inactive) in the assay on MDA-N and > 100 µM (inactive) in the assay on SF-268.

Consider `Cc1ccc(S(=O)(=O)Nn2c(-c3ccccc3)c(C#N)c(-c3ccc(Cl)cc3)c(C#N)c2=O)cc1`, for which the GI50 with COLO 205 was 24.5 µM (inactive); with HL-60, 14.6 µM (inactive); in the assay with HCT-116, 18.9 µM (inactive); in the assay with ACHN, 22 µM (inactive); with A498, 21.8 µM (inactive); in the assay with OVCAR-4 it was 38.8 µM (inactive). For the same compound, the GI50 with MDA-MB-435 was 33.3 µM (inactive); with RXF 393 it was 25.2 µM (inactive); with SK-MEL-28, 24.4 µM (inactive); in the assay on CAKI-1 it was 55.7 µM (inactive); in the assay on MDA-N, 28.4 µM (inactive).

`O=C(CCc1nnc2s/c(=C\c3ccc(Cl)c(Cl)c3)c(=O)n12)Nc1ccc(Cl)c(Cl)c1`: the GI50 in the assay on COLO 205 is 56.6 µM (inactive); with HL-60, 22.8 µM (inactive); with EKVX it was > 100 µM (inactive); with HCT-116, > 100 µM (inactive); in the assay on HT-29, > 100 µM (inactive); in the assay on ACHN, > 100 µM (inactive). In addition, the GI50 is 39 µM (inactive) with A498; 20.4 µM (inactive) in the assay on OVCAR-8; 73.5 µM (inactive) in the assay with OVCAR-4; 28.8 µM (inactive) in the assay with RXF 393; > 100 µM (inactive) with SK-MEL-28; > 100 µM (inactive) with NCI-H226. Also, the values for the GI50 in the assay with CAKI-1, with KM12 and in the assay with SF-268 were > 100 µM (inactive), 43.4 µM (inactive) and 55.5 µM (inactive), respectively.

Take `CCOC(=O)C1=C(C)CC2C(=O)OC(=O)C2C1(C)C` (configuration not stated): the GI50 in the assay with COLO 205, in the assay on HL-60, with EKVX, in the assay on HT-29, in the assay on ACHN and in the assay on OVCAR-8 was > 100 µM (inactive) in each case. Besides, the GI50 with RXF 393, in the assay on SK-MEL-28, in the assay with NCI-H226, in the assay on KM12 and in the assay on SF-268 was > 100 µM (inactive) in each case.

For `O=C(CNc1nccs1)Nn1cnc2ccc(S(=O)(=O)Nc3nccs3)cc2c1=O`, the GI50 with COLO 205, in the assay with Hs-578T, in the assay with HL-60, in the assay on EKVX, in the assay with HCT-116 and in the assay on HT-29 was > 100 µM (inactive) in each case. The GI50 with ACHN, with OVCAR-8, in the assay with OVCAR-4, in the assay on MDA-MB-435, in the assay on SK-MEL-28 and in the assay with NCI-H226 was > 100 µM (inactive) each time. For the same compound, the GI50 in the assay with CAKI-1, in the assay with KM12, in the assay on MDA-N and in the assay on SF-268 was > 100 µM (inactive) throughout.

Take `CCCCCCCCCCCCCCNCC(OCC)OCC`: the GI50 in the assay on COLO 205 is 14.4 µM (inactive); with HL-60, 2.85 µM (inactive); in the assay on EKVX it was 17.7 µM (inactive); in the assay with HCT-116, 11.1 µM (inactive); with HT-29 it was 2.86 µM (inactive); in the assay on ACHN, 12.6 µM (inactive). Besides, the GI50 with A498 is 14.4 µM (inactive); in the assay on OVCAR-8, 18.5 µM (inactive); in the assay on OVCAR-4, 13.6 µM (inactive); with RXF 393, 10.2 µM (inactive); in the assay with SK-MEL-28, 16.9 µM (inactive); in the assay with NCI-H226 it was 18.4 µM (inactive). For the same compound, the GI50 was 10.3 µM (inactive) in the assay on KM12 and 17.3 µM (inactive) with SF-268.

Take `CC(=O)C1C(=O)C(=O)N(c2cccc(C)c2C)C1=O` (configuration not stated): the GI50 with COLO 205, in the assay on HL-60, in the assay on EKVX, in the assay with HCT-116, in the assay on HT-29 and in the assay with ACHN was > 100 µM (inactive) each time. Also, the GI50 in the assay with T47D, in the assay with OVCAR-8, with NCI-H226, in the assay with CAKI-1, with KM12 and in the assay with MDA-N was > 100 µM (inactive) throughout.

Regarding `CCCCCCCCCCCCCCCC(=O)OCC1CCCN2CCCCC12` (configuration not stated), the GI50 in the assay with COLO 205, in the assay on Hs-578T, in the assay on HL-60, in the assay with EKVX, in the assay with HCT-116 and in the assay with HT-29 was > 100 µM (inactive) throughout. Besides, the GI50 in the assay on ACHN, with A498, in the assay with OVCAR-8, in the assay with OVCAR-4, with MDA-MB-435 and in the assay with RXF 393 was > 100 µM (inactive) throughout. The GI50 with SK-MEL-28, in the assay on NCI-H226, in the assay on CAKI-1, in the assay with KM12, in the assay on MDA-N and with SF-268 was > 100 µM (inactive) throughout.

Take `Cc1ccc(NC(=O)CCC/C(CC(=O)c2ccc(Br)cc2)=N/NC(=O)CC#N)cc1`: the GI50 in the assay on COLO 205, in the assay on HL-60, with EKVX, in the assay with HCT-116, with HT-29 and in the assay on ACHN was > 100 µM (inactive) throughout. Further, the GI50 in the assay on OVCAR-8, in the assay on OVCAR-4, with RXF 393, in the assay with SK-MEL-28, in the assay on NCI-H226 and in the assay with KM12 was > 100 µM (inactive) in each case. The GI50 in the assay with SF-268 was > 100 µM (inactive).

For the compound `CN1Cc2cc3cc4c(cc3nc2N(C)C1)OCCO4`, the GI50 with COLO 205 is > 100 µM (inactive); with EKVX it was > 100 µM (inactive); in the assay on HCT-116, > 100 µM (inactive); in the assay with HT-29 it was > 100 µM (inactive); in the assay with ACHN it was > 100 µM (inactive); with A498 it was 68.4 µM (inactive). Moreover, the GI50 with OVCAR-8, in the assay on OVCAR-4, in the assay with MDA-MB-435, in the assay with RXF 393, in the assay with NCI-H226 and with CAKI-1 was > 100 µM (inactive) throughout. Also, the GI50 with KM12, in the assay with MDA-N and in the assay on SF-268 was > 100 µM (inactive) each time.

`CC1CCOc2ccc(cc2)/C=N\c2ccc(cc2)-c2ccc(cc2)/N=C\c2ccc(cc2)OCC1`: the GI50 with COLO 205, in the assay with Hs-578T, with HL-60, in the assay with EKVX, in the assay on HCT-116 and with HT-29 was > 100 µM (inactive) throughout. The GI50 in the assay with ACHN, with OVCAR-8, with OVCAR-4, in the assay with MDA-MB-435, in the assay on SK-MEL-28 and with NCI-H226 was > 100 µM (inactive) throughout. Also, the GI50 in the assay on CAKI-1, with KM12, in the assay with MDA-N and in the assay on SF-268 was > 100 µM (inactive) in each case.

As for `O/N=N/c1ccc(-c2ccccc2)cn1`, the GI50 is 15 µM (inactive) in the assay with COLO 205; 23.8 µM (inactive) in the assay on Hs-578T; 0.176 µM (active) with HL-60; 7.5 µM (inactive) with EKVX; 9.08 µM (inactive) in the assay with HCT-116; 20.6 µM (inactive) in the assay on HT-29. Also, the GI50 is 2.86 µM (inactive) with ACHN; 8.18 µM (inactive) with T47D; 13 µM (inactive) in the assay on A498; 15 µM (inactive) in the assay with OVCAR-8; 23.3 µM (inactive) with OVCAR-4; 14.7 µM (inactive) with MDA-MB-435. The GI50 in the assay with RXF 393 is 1.38 µM (inactive); with SK-MEL-28 it was 45.2 µM (inactive); in the assay on NCI-H226, 17.9 µM (inactive); with CAKI-1, 4.55 µM (inactive); in the assay on KM12, 33.9 µM (inactive); in the assay with SF-268, 4.59 µM (inactive).

`O=C(O)c1cccc(/C=C/c2ccccc2)c1`: the GI50 in the assay on COLO 205, in the assay on Hs-578T, with EKVX, with HCT-116, in the assay with HT-29 and in the assay on ACHN was > 100 µM (inactive) each time. Further, the GI50 in the assay on T47D, in the assay with A498, in the assay with OVCAR-8, in the assay with OVCAR-4, with MDA-MB-435 and in the assay with RXF 393 was > 100 µM (inactive) each time. Also, the GI50 with SK-MEL-28, with NCI-H226, in the assay with CAKI-1, in the assay on KM12 and with SF-268 was > 100 µM (inactive) each time.
